Numbers after ± are expanded uncertainties.

For the data set the following is noted: for Normal melting temperature: DTA.

With `c1ccc2c(c1)[nH]c1ccccc12` [9H-carbazole], the Normal melting temperature (Crystal) is 243.89 ± 0.7 °C.
`c1ccc2c(c1)ccc1ccccc12` [phenanthrene]: where the note is “Crystal 1”, the Normal melting temperature worked out at 98.56 ± 0.7 °C. Besides, the Triple point temperature (Crystal 2, DSC) is 339.52 ± 0.93 K.
